The values below come from patent publication US20050130909A1 (priority 2002, published 2005).

Data set [1] can be described thus: Phase II SSTI trial: adverse events (ITT population). The format is in vivo, human. As to the method: This randomized, controlled study evaluated the safety and efficacy of two dose regimens of dalbavancin.
Each patient who received at least one dose of study drug (ITT population) was evaluated for drug safety through monitoring of adverse events (AE), including abnormal clinical laboratory test results and vital signs. AE were rated by the investigator as to their severity (mild, moderate, severe, life-threatening), and by the relationship to the study drug (not related, unlikely related, possibly related, or probably related).

The test system of a further data set is dipeptide (D-Ala-D-Ala). In words: ITC, preliminary experiments. It counts as binding. To be noted: absence of serum proteins. In general terms: In ITC the heat of successive injections is recorded.
[2] abbreviates: single-dose dalbavancin (N = 20).

Turning to `CN[C@H]1C(=O)N[C@@H]2Cc3ccc(cc3)Oc3cc4cc(c3O[C@@H]3O[C@H](C(=O)O)[C@@H](O)[C@H](O)[C@H]3NC(=O)CCCCCCCCC(C)C)Oc3ccc(cc3Cl)[C@@H](O)[C@@H]3NC(=O)[C@H](NC(=O)[C@@H]4NC(=O)[C@@H](NC2=O)c2cc(cc(O)c2Cl)Oc2cc1ccc2O)c1ccc(O)c(c1)-c1c(O[C@H]2O[C@H](CO)[C@@H](O)[C@H](O)[C@@H]2O)cc(O)cc1[C@@H](C(=O)NCCCN(C)C)NC3=O` [Dalbavancin], in data set [1] (Phase II trial), the Hepatotoxicity or nephrotoxicity entry is listed as “no evidence that dalbavancin induces any degree of clinically significant hepatotoxicity or nephrotoxicity”. For the same compound, the “Serious adverse events related to study drug” value in data set [1] (Phase II trial, both dalbavancin regimens) is recorded as “no serious adverse events related to study drug treatment”. In data set [1] (Phase II trial, both doses), the Tolerability entry was “well tolerated”. In data set [1] (setting [2]), the “AE leading to discontinuation of study medication” value is given as 0, the “Patients with ≧1 AE” value is reported as 95% and the “≧1 AE possibly/probably related to treatment” value was found to be 55%. For the same compound, the “≧1 AE possibly/probably related to treatment” value in data set [1] (single-dose dalbavancin (N = 20), listed as dalbavancin) was found to be 55%. In addition, in data set [1] (two-dose dalbavancin (N = 21)), the “AE leading to discontinuation of study medication” value is 0, the “Adverse event: Constipation” value was determined as 4.8%, the “Patients with ≧1 AE” value stood at 76.2% and the “≧1 AE possibly/probably related to treatment” value is 48%. Further, in data set [1] (two-dose dalbavancin (N = 21), listed as dalbavancin), the “≧1 AE possibly/probably related to treatment” value came to 48%. Further, in the data set with dipeptide (D-Ala-D-Ala), the “Binding to dipeptide (D-Ala-D-Ala)” value is recorded as “no evidence of binding”.
